From PMC10122656, “Siglec-6 mediates the uptake of extracellular vesicles through a noncanonical glycolipid binding pocket” (Nature Communications, 2023)
Substitutions are numbered along the chain they refer to. Where “and” joins values, the source holds several entries; their conditions need not be identical. Equal values may be shown once.

Key:
Assay in all cases: Cell assay (liposome/EV binding, flow cytometry);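 for liposome binding, fluorescence signal (replicates): AF647 fluorescence intensity from 0.1 mol% AF647–PEG45–DSPE in liposomes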
Type in all cases: cell-based
WT Siglec-6 CHO cells = target: T1, WT Siglec-6 CHO cells (Homo sapiens, UniProt O43699); conditions: for log10(MFI AF647) of GLL relative to log10(MFI AF647) of the same GLL against UT CHO cells (Fig. 2a): Sig-6 WT, 3 mol% ganglioside liposomes; for Binding of liposomes to WT Siglec-6 CHO cells relative to liposomes formulated without a ligand (Fig. 3c): 3 mol% glycolipid, Cer = native ganglioside, Amide = amide-linked nGL;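 for liposome binding, fluorescence signal (replicates): AF647 fluorescence intensity from 0.1 mol% AF647–PEG45–DSPE in liposomes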
T1 construct: expressed in transfected cells
T1 sequence (O43699 27-453): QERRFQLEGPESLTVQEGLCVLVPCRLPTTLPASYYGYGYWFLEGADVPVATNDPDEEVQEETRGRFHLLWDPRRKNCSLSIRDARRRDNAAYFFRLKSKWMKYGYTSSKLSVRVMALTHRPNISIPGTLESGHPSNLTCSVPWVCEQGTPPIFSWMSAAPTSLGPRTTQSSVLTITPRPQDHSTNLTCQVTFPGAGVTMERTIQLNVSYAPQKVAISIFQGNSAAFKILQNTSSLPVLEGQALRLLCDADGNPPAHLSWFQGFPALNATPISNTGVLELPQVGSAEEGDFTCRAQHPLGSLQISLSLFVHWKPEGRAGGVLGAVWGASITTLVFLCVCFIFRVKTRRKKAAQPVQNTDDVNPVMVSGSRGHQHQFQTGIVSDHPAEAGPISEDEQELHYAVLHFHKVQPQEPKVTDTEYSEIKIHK
Method: (§1) Stock lipids (DSPC, Cholesterol, PEG45–DSPE) solutions were prepared by solvating the lipids in chloroform. An appropriate volume of each lipid solution was transferred to a glass test tube to reach the desired mol% of the component. The chloroform was then removed under N2 gas to yield a lipid thin film. Once dry, 100 µL of DMSO was added to the lipid-containing test tube and then the functional lipids (ganglioside, AF647–PEG45–DSPE, Siglec ligand–PEG45–DSPE, pHrodo–PEG45–DSPE, NGL) was added from their respect DMSO stock solution. The lipid mixture was then stored at −80 °C until completely frozen at which point excess DMSO was removed via lyophilization. Dry lipids were then stored at −80 °C until they were extruded. Lipid suppliers can be found in Supplementary Table 4.
(§2) Dry lipids were then hydrated in 1 mL of PBS. The lipids were then sonicated in a bath sonicator in a cycle of 1 min on, 5 min off for a total of five cycles. Liposomes were then extruded using an Avanti mini extruder first using an 800 nm filter and then a 100 nm filter yielding liposomes that were 130 ± 35 nm (Supplementary Table 5) measured using a Malvern Panalytical Zetasizer Nano S. Liposomes were stored at 4 °C.
(§3) 200,000 cells/well were plated into a 96-well U-bottom microplate and centrifuged at 300 × g for 5 min. The cells were then resuspended in 50 µL of 50 µM liposome/50 µg/mL (protein concentration) of EV solution in DMEM F12 5% FBS and incubated at 37 °C for 30 min. Excess liposomes were then removed via centrifuged at 300 × g for 5 min followed by washing the cells with FACS solution. The cells were then resuspended in (1:250 V/V) anti-Siglec-flow buffer (1% V/V FBS, 500 µM, EDTA Hank’s Balanced Salt Solution pH 7.4), solution and left to rest on ice for 30 min. The cells were then centrifuged again at 300 × g for 5 min and the cells were resuspended in FACS buffer solution and were then ready for analysis by flow cytometry. Information regarding antibody clone, catalog number supplier, label isotype, and dilution can be found in Supplementary Table 6. The Siglec-positive cells were gated on for liposome-binding analysis (Supplementary Fig. 1b).
(§4) Flow cytometry measurements were collected on a 5-laser Fortessa X-20 (BD Bioscience). All the resulting data were analyzed using FlowJo (10.5.3) software (BD Biosciences).

CD33 R119A CHO cells = target: T2, CD33 R119A CHO cells (Homo sapiens, UniProt P20138, R119A); conditions: 3 mol% ganglioside liposomes, replicates
T2 construct: expressed in transfected cells
T2 sequence (P20138 18-364 R119A): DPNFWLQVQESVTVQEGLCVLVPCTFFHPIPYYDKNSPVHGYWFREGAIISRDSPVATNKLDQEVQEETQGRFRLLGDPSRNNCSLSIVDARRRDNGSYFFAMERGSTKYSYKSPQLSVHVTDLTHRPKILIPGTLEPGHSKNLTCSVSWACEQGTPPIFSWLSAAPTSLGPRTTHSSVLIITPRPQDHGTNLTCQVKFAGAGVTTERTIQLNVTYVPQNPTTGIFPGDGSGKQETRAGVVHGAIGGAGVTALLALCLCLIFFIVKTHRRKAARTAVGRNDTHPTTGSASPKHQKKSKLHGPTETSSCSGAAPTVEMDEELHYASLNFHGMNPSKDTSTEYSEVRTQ
Method: as §1, §2, §3, §4

Siglec-10 WT CHO cells = target: T3, Siglec-10 WT CHO cells (Homo sapiens, UniProt Q96LC7); conditions: for log10(MFI AF647) of GLL relative to log10(MFI AF647) of the same GLL against UT CHO cells (Fig. 2a): Sig-10 WT, 3 mol% ganglioside liposomes, replicates; for GLL binding to Siglec-10 (in words): cell assay, optimized liposomal formulation
T3 construct: expressed in transfected cells
T3 sequence (Q96LC7 17-697): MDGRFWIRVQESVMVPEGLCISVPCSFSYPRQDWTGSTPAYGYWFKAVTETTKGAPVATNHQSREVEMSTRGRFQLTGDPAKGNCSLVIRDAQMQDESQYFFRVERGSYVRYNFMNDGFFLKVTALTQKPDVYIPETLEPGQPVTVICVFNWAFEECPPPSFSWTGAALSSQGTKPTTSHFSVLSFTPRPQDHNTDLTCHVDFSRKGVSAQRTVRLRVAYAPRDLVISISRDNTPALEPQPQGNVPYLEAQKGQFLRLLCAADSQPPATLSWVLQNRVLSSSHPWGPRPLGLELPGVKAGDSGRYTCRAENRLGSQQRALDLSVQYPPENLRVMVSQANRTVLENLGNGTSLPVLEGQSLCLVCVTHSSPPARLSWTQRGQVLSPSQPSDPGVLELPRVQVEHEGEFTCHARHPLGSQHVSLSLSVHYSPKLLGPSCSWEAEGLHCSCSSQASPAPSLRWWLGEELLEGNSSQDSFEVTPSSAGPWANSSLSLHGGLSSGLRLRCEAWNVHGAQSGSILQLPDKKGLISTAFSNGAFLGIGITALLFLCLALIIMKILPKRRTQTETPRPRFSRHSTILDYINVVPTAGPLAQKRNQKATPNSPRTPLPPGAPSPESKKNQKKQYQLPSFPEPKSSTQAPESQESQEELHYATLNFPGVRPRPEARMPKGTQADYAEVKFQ
Method: as §1, §2, §3, §4

[1] = target: T4, Siglec-15 R143A CHO cells (Homo sapiens, UniProt Q6ZMC9, K274L/R143A); conditions: Sig-15 R143A; 3 mol% ganglioside liposomes; replicates
T4 construct: expressed in transfected cells
T4 sequence (Q6ZMC9 20-328 R143A/K274L): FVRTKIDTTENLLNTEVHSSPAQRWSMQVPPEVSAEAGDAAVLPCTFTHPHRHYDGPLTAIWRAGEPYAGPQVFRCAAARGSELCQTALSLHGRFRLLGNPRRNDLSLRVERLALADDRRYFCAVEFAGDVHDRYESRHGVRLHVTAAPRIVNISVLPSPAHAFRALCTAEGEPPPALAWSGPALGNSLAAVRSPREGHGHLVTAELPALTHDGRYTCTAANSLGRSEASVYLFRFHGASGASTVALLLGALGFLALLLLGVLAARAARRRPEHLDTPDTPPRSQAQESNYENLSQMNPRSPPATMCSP
Method: as §1, §2, §3, §4

Siglec-15 WT CHO cells = target: T5, Siglec-15 WT CHO cells (Homo sapiens, UniProt Q6ZMC9, K274L); conditions: Sig-15 WT; 3 mol% ganglioside liposomes; replicates
T5 construct: expressed in transfected cells
T5 sequence (Q6ZMC9 20-328 K274L): T4 sequence (Q6ZMC9 20-328 R143A/K274L) with A124R
Method: as §1, §2, §3, §4

[2] = sheet Figure S17, cells not given, three experiments, each with its own Naked control

Row | Compound | liposome binding, fluorescence signal (replicates) (WT Siglec-6 CHO cells; [2]) | log10(MFI AF647) of GLL relative to log10(MFI AF647) of the same GLL against UT CHO cells (Fig. 2a) (CD33 R119A CHO cells) | log10(MFI AF647) of GLL relative to log10(MFI AF647) of the same GLL against UT CHO cells (Fig. 2a) (Siglec-10 WT CHO cells) | log10(MFI AF647) of GLL relative to log10(MFI AF647) of the same GLL against UT CHO cells (Fig. 2a) [1] | log10(MFI AF647) of GLL relative to log10(MFI AF647) of the same GLL against UT CHO cells (Fig. 2a) (Siglec-15 WT CHO cells) | log10(MFI AF647) of GLL relative to log10(MFI AF647) of the same GLL against UT CHO cells (Fig. 2a) (WT Siglec-6 CHO cells; replicates) | other results
1 | CCCCCCCCCCCCCCCCOCC(COCCCCCCCCCCCCCCCC)OCc1cn(CCO[C@@H]2O[C@H](CO)[C@@H](O[C@@H]3O[C@H](CO)[C@H](O)[C@H](O[C@]4(C(=O)O)C[C@H](O)[C@@H](NC(C)=O)[C@H]([C@H](O)[C@H](O)CO)O4)[C@H]3O)[C@H](O)[C@H]2O)nn1 [GM3-DAG] |  |  |  |  |  |  | liposome binding, fluorescence signal (replicates) (WT Siglec-6 CHO cells; sheet Figure S22b, Sig-6): 1899 and 2014 and 1894 and 1967; liposome binding, fluorescence signal (replicates) (WT Siglec-6 CHO cells; sheet Figure S26a, 3% GM3-DAG liposomes, WT): 5874 and 5544 and 5060 and 6703; liposome binding, fluorescence signal (replicates) (WT Siglec-6 CHO cells; sheet Figure S28b, 3% GM3-DAG liposomes, WT): 2153 and 2258 and 2285 and 2102; liposome binding, fluorescence signal (replicates) (WT Siglec-6 CHO cells; sheet Figure S26d, WT): 1302 and 879 and 1034 and 1211
2 | CCCCCCCCCCCCCCCCOCC(COCCCCCCCCCCCCCCCC)OCc1cn(CCO[C@@H]2O[C@H](CO)[C@@H](O[C@@H]3O[C@H](CO)[C@H](O)[C@H](O[C@]4(C(=O)O)C[C@H](O)[C@@H](NC(C)=O)[C@H]([C@H](O)[C@H](O)CO)O4)[C@H]3O)[C@H](O)[C@H]2O)nn1 [nGL 5] | 3983 and 3299 and 3469 and 4281 |  |  |  |  |  | nGLL binding to WT Siglec-6 CHO cells (in words) (WT Siglec-6 CHO cells; 3 mol% nGL in liposomes): relatively high binding; Binding of nGL liposomes to WT Siglec-6 CHO cells relative to naked liposomes (Fig. 3e) (WT Siglec-6 CHO cells; 3 mol% nGL, replicates): 13.1 and 10.8 and 11.4 and 14; Binding of nGL liposomes relative to liposomes formulated with 3 mol% nGL 5 (Fig. 3g) (WT Siglec-6 CHO cells; WT Siglec-6 CHO cells, 3 mol% nGL, replicates): 0.93 and 1.01 and 1.13; fold difference in binding to Siglec-6 between 5 and GM3 (WT Siglec-6 CHO cells; cell assay (liposomal display)): 34 fold; liposome binding, fluorescence signal (replicates) (WT Siglec-6 CHO cells; sheet Figure S18a, cells not given): 2909 and 2902 and 3112 and 3410; optimal content of 5 in liposomes for engaging Siglec-6 (WT Siglec-6 CHO cells; titration in cell assay and bead assay): 5 mol%
3 | GD1a |  | 0 (2×) and -0.03 and -0.02 | 0.32 (2×) and 0.3 and 0.31 | -0.02 and -0.07 and -0.06 and -0.05 | -0.08 and -0.06 and -0.07 (2×) | 0.57 (2×) and 0.56 (2×) | 
4 | GD1b |  | -0.06 and -0.07 and -0.04 and -0.05 | 0.18 and 0.23 and 0.2 and 0.22 | -0.12 and -0.14 (3×) | -0.14 (2×) and -0.12 (2×) | 0.23 and 0.21 (2×) and 0.22 | 
5 | GD3 |  | 0 (2×) and 0.03 (2×) | 0.33 (2×) and 0.31 (2×) | 0.02 and -0.02 and 0 and -0.01 | -0.02 and -0.01 and 0 and -0.03 | 0.91 and 0.9 (2×) and 0.88 | GLL binding to Siglec-10 (in words) (Siglec-10 WT CHO cells): novel interactions were observed
6 | GM1 | 2111 and 2091 and 2310 and 2148 | -0.15 and -0.13 and -0.21 (2×) | 0.32 (2×) and 0.35 and 0.26 | -0.08 and -0.12 (2×) and -0.11 | -0.21 and -0.2 and -0.17 (2×) | 0.96 and 0.93 and 0.94 (2×) | GLL binding to Siglec-10 (in words) (Siglec-10 WT CHO cells): novel interactions were observed; Binding of liposomes to WT Siglec-6 CHO cells relative to liposomes formulated without a ligand (Fig. 3c) (WT Siglec-6 CHO cells; replicates, listed as GM1 Cer): 10 and 9.9 and 11 and 10.2; GLL binding to Siglec-6 with increasing ganglioside content (in words) (WT Siglec-6 CHO cells; ganglioside titrated in GLLs): decreased above an optimal ganglioside content
7 | GM2 |  | -0.01 and 0 and 0.03 (2×) | 0.23 and 0.24 and 0.22 and 0.18 | -0.02 (2×) and -0.04 and -0.03 | -0.07 and -0.05 and -0.03 (2×) | 0.03 (2×) and 0.04 and 0.06 | 
8 | GM3 | 274 and 267 and 291 and 321 | -0.06 (2×) and -0.03 (2×) | -0.09 (2×) and -0.02 and -0.08 | -0.11 (2×) and -0.12 (2×) | -0.12 and -0.09 (2×) and -0.1 | -0.2 (2×) and -0.19 and -0.17 | Binding of liposomes to WT Siglec-6 CHO cells relative to liposomes formulated without a ligand (Fig. 3c) (WT Siglec-6 CHO cells; replicates, listed as GM3 Cer): 0.344 and 0.335 and 0.365 and 0.403
9 | GM4 |  | -0.05 (2×) and -0.02 (2×) | 0.2 and 0.21 (3×) | -0.08 and -0.09 and -0.11 and -0.1 | -0.1 and -0.08 (2×) and -0.07 | 0.02 (2×) and 0.05 and 0.04 | 
10 | GQ1b |  | -0.11 (2×) and -0.1 and -0.09 | 0.23 and 0.24 and 0.22 and 0.21 | -0.11 (2×) and -0.12 and -0.08 | -0.13 and -0.12 (2×) and -0.17 | 0.57 and 0.55 and 0.54 and 0.56 | 
